PubChem BioAssay AID1413 (The Scripps Research Institute Molecular Screening Center, 2008)
Activity calls are given as the source filed them.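 Rule for the calls: active = CC50, the dose killing half the cells, at or below 10 µM, by curve fit or manual estimate; inactive = CC50 above 10 µM.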

test system: HeLa viability, CellTiter-Glo ATP luminescence; assay: viability loss of HeLa cells – cell-based, CellTiter-Glo luminescence, cytotoxicity control for Wee1 degradation inhibitor project, dose response (AID 1413)

SMILES | CC50
O=S(=O)(C/C(=C/CO)S(=O)(=O)c1ccccc1)c1ccccc1 | > 49.8 µM (inactive)
Cc1cc(Cl)ccc1NC(=S)Nc1ccccn1 | > 49.8 µM (inactive)
Cc1csc2sc(-c3ccnc(SCC(=O)NCc4ccccc4)n3)c(C)c12 | > 49.8 µM (inactive)
C=CS(=O)(=O)c1ccc(Oc2ccc(S(=O)(=O)C=C)cc2)cc1 | > 49.8 µM (inactive)
O=C(/C=C/c1cccnc1)/C=C/c1cccnc1 | > 49.8 µM (inactive)
O=c1[nH]c2ccccc2nc1/C=C(\O)c1cccs1 | > 49.8 µM (inactive)
CCOC(=O)C1=C(c2ccccc2)O/C(=C(/C#N)C(F)(F)F)S1 | 7.17 µM
O=C(Nc1ccc(Cl)c(Cl)c1)Nc1nccs1 | > 49.8 µM (inactive)
COc1cc(C2=NOC(C(=O)NCc3cccs3)C2)cc(OC)c1OC (stereo not drawn) | > 49.8 µM (inactive)
CCOc1cccc(N(C(=O)Cc2cccs2)C(C(=O)NC2CCCCC2)c2cccn2C)c1 (stereo not drawn) | > 49.8 µM (inactive)
Cn1cccc1/C=C1\SC(=Nc2ccccc2)NC1=O | > 49.8 µM (inactive)
COc1cccc(C2=CC(c3cccc(OC)c3OC)n3nnnc3N2)c1 (stereo not drawn) | > 49.8 µM (inactive)
COc1cccc(/C=N/NC(=O)c2cc3c(OC)c(OC)ccc3[nH]2)c1OC | > 49.8 µM (inactive)
On1onc2c3cc(-c4ccccc4)nc3ccc21 | > 49.8 µM (inactive)
COC(=O)C1CCN(C(=O)/C=C/c2ccc(OC)cc2)CC1 | > 49.8 µM (inactive)
COc1ccc(/C=N/NC(=O)c2ccc3ccccc3c2)cc1OS(=O)(=O)c1ccc(NC(C)=O)cc1 | > 49.8 µM (inactive)
Cc1ccc2nc(NCc3ccccc3)[nH]c2c1 | > 49.8 µM (inactive)
Cc1nc2ccccn2c1-c1csc(Nc2cccc(O)c2)n1 | > 49.8 µM (inactive)
COc1ccc(NC(=O)/C(Cl)=C(/Cl)S(=O)Cc2ccc(C)cc2)cn1 (stereo not drawn) | 14.5 µM (inactive)

SMILES | CC50
Cc1cccn2c1nc(=S)n2C(=O)c1ccco1 | > 49.8 µM (inactive)
O=C(N=Nc1c(O)[nH]c2ccc(Br)cc12)c1ccccc1-n1cccc1 | > 49.8 µM (inactive)
O=C(COc1ccc(C(=O)c2ccc(F)cc2)cc1)NCc1ccc(F)cc1 | > 49.8 µM (inactive)
Cc1ccnc(NC(=O)CCCOc2cc(=O)n(C)c3ccccc23)c1 | > 49.8 µM (inactive)
CCN(CC)c1ccc(/C=N/NC(=O)c2ccco2)cc1 | > 49.8 µM (inactive)
Cc1ccc(Nc2cc(C)nn2-c2nc(C)cc(=O)[nH]2)cc1 | > 49.8 µM (inactive)
COc1ccc(NC(=O)/C(Cl)=C(/Cl)S(=O)Cc2ccccc2)cn1 (stereo not drawn) | > 16.6 µM (inactive)
CCN(CC)c1ccc(/C=N/NC(=O)c2cnccn2)cc1 | > 49.8 µM (inactive)
O=C(/C=C/c1ccccc1)Nc1ccc(Cl)cn1 | > 49.8 µM (inactive)
CCCC1=Nc2cc(C(=O)NCc3ccco3)ccc2Sc2ccccc21 | > 49.8 µM (inactive)
CCN(CC)S(=O)(=O)c1ccc(C(=O)NCCc2ccccn2)cc1 | > 49.8 µM (inactive)
O=[N+]([O-])c1ccc(Sc2cccc[n+]2[O-])c2nonc12 | 6.76 µM
O=C1C=CC(O)(c2cc(=O)c3c(O)cc(O)cc3o2)C=C1 | > 49.8 µM (inactive)
CC(=O)Nc1ccc(/C=N/Nc2nc3ccccc3s2)cc1 | > 49.8 µM (inactive)
CCOC(=O)N1CCN(C(=O)c2cc(-c3ccc(OCC)cc3)nc3ccccc23)CC1 | > 49.8 µM (inactive)
CCCCS(=O)(=O)/C=C\C=C/S(=O)(=O)CCCC | > 16.6 µM (inactive)
COc1ccccc1-c1ccc(SCc2ccccc2F)nn1 | > 49.8 µM (inactive)
COc1ccc(Nc2oc(-c3ccc(OC)cc3)nc2C#N)cc1 | > 49.8 µM (inactive)
Cc1ccc(/C=N/NC(=O)c2ccc3c(c2)OCCO3)s1 | > 49.8 µM (inactive)
